# Test results taken from patent publication EP0561489A2, “Deodorant compositions containing materials for inhibiting bacterial adherence, method of use thereof, and method for determining materials that inhibit bacterial adherence” (THE MENNEN COMPANY, priority 1992, dated 1993).
# Columns and labels:
# [1] = system: small colony diphtheroids; conditions: human stratum corneum blended in physiological saline; U.S. Patent No. 4,518,517; cited from earlier work
# [2] = system: adherence of aerobic diphtheroids to undifferentiated HE cells; assay: Inhibition of bacterial adherence to undifferentiated human epithelial cells; format: cell-based; conditions: 17 mg/ml final concentration
# Procedure: Skin microorganisms were isolated from the axillae of ten healthy human volunteers (male and female). Corynebacterium diphtheriae, Corynebacterium group J-K, and Escherichia coli 1677 were also obtained. The latter bacteria were included as controls for the adherence experiments. Microorganisms were maintained either by subculture on blood agar plates or trypticase soy agar base with 5% defibrinated sheep's blood. Stock cultures were frozen at -20°C in semi-solid trypticase soy agar for aerobes and chopped meat carbohydrate broth for anaerobes. For in vitro adherence assays the lipophilic corynebacteria were serially subcultured three times for periods of 24 hrs. in tryptose broth with 0.5% Tween-80.
# Isolation of microorganisms from the axillae was performed by addition of 1 ml of a 0.1% Triton X-100 solution onto a sterile glass cylinder placed firmly on the skin in the axilla (total area 3.8cm²). […]
# Human epithelial (HE) cells (primary culture from normal human epidermal keratinocytes) were used to assess the adherence of the axillary microorganisms. […] Differentiation of HE cells was induced by addition of calcium chloride (CaCl₂) to a concentration of 2 mM/L. Differentiation was assessed by mound formation (3 to 5 layers of cells) during tissue culture and by a modified Ayoub-Shklar's stain for differentiated epithelial cells. […]
# [3] = system: adherence of aerobic diphtheroids to differentiated HE cells; assay: Inhibition of bacterial adherence to differentiated human epithelial cells; format: cell-based; conditions: for inhibition of attachment of aerobic skin bacteria to differentiated HE cells (in words) / inhibition at 17000 µg/mL: 17 mg/ml final concentration; for inhibition at 17000 µg/mL: Homo sapiens, Epithelial cell
structure (smiles),measurement,setting,value
OC[C@H]1O[C@H](O[C@H]2[C@H](O)[C@@H](O)[C@H](O)O[C@@H]2CO)[C@H](O)[C@@H](O)[C@@H]1O [maltose],effect on diphtheroid bacterial attachment to the skin sample (in words),[1],a greater amount of bacteria attached to the skin than one treated with mannose
C[C@H](O)[C@H](O)[C@@H](O)[C@@H](O)C=O [rhamnose],effect on diphtheroid bacterial attachment to the skin sample (in words),[1],a greater amount of bacteria attached to the skin than one treated with mannose
OC[C@H]1O[C@@H](O[C@H]2[C@H](O)[C@@H](O)C(O)O[C@@H]2CO)[C@H](O)[C@@H](O)[C@H]1O (stereo partly drawn) [lactose],effect on diphtheroid bacterial attachment to the skin sample (in words),[1],a greater amount of bacteria attached to the skin than one treated with mannose
O=C(CO)[C@@H](O)[C@H](O)[C@H](O)CO [fructose],effect on diphtheroid bacterial attachment to the skin sample (in words),[1],a greater amount of bacteria attached to the skin than one treated with mannose
"CC(=O)N[C@H]1C(O)O[C@H](CO)[C@@H](O)[C@@H]1O (stereo partly drawn) [NAGA, N-acetyl-D-glucosamine]",inhibition of attachment of aerobic skin bacteria to undifferentiated HE cells (in words),[2],consistently able to inhibit attachment
same,inhibition of attachment of aerobic skin bacteria to differentiated HE cells (in words),[3],consistently able to inhibit attachment
same,effect on diphtheroid bacterial attachment to the skin sample (in words),[1],neither galactose nor N-acetyl glucosamine had an effect
"C[C@@H](O)[C@H](O)[C@H](O)[C@@H](O)C=O [fucose, D(+) fucose]",inhibition of attachment of aerobic skin bacteria to undifferentiated HE cells (in words),[2],consistently able to inhibit attachment
same,inhibition of attachment of aerobic skin bacteria to differentiated HE cells (in words),[3],consistently able to inhibit attachment
"O=C[C@H](O)[C@@H](O)[C@@H](O)[C@H](O)CO [galactose, D(+) galactose]",inhibition of attachment to differentiated epithelial cells (in words),[3],poor capacity to inhibit attachment
same,inhibition at 17000 µg/mL,[3],70 to 90%
same,effect on diphtheroid bacterial attachment to the skin sample (in words),[1],neither galactose nor N-acetyl glucosamine had an effect
"OC[C@H]1O[C@@](CO)(O[C@H]2O[C@H](CO)[C@@H](O)[C@H](O)[C@H]2O)[C@@H](O)[C@@H]1O [Sucrose, sucrose, reference compound]",inhibition at 17000 µg/mL,[3],-12.8 to 22.6%
same,effect on diphtheroid bacterial attachment to the skin sample (in words),[1],a greater amount of bacteria attached to the skin than one treated with mannose
OC[C@H]1O[C@H](OC[C@H]2O[C@H](O[C@]3(CO)O[C@H](CO)[C@@H](O)[C@@H]3O)[C@H](O)[C@@H](O)[C@@H]2O)[C@H](O)[C@@H](O)[C@H]1O [raffinose],effect on diphtheroid bacterial attachment to the skin sample (in words),[1],a greater amount of bacteria attached to the skin than one treated with mannose
